The subject of one data set is C. auris isolates. In words: Candida auris antifungal susceptibility testing (AFST), CLSI M27-A3. In kind it is cell-based.
Data set [1] is described as follows: Solubility of test articles in vehicle, visual observation. The following applies: WFI; 2 mg/mL.
Description: Amphotericin B and fluconazole were in powder form. Amphotericin B was dissolved in 0.9% NaCl. Fluconazole was dissolved in water (WFI: water for injection).
For the next data set, the system named is C. albicans (R357). The data set can be described thus: Disseminated infection model with C. albicans R357, kidney fungal counts. The format is in vivo, ICR mice.
For data set [2], the system named is azole-resistant C. albicans R357 strain. The data set can be described thus: MIC and CLSI susceptibility, azole-resistant C. albicans R357. In kind it is cell-based, Candida albicans. The note with it: for Susceptibility of strain R357 in words: C. albicans R357 isolated from human blood.
In data set [3] the test system is Aspergillus fumigatus (ATCC 13073). In words: Neutropenic mouse model of aspergillosis, survival. The note with it: 2 mg/kg IP one dose; 10 days; P<0.05. The format is in vivo, mice.

The values that follow come from patent US20240108684A1, “DOSING REGIMENS FOR TREATMENT OF FUNGAL INFECTIONS” (priority 2016, published 2024).

Converted amounts (≈) assume the structure as drawn. Where two headings read alike, the source gives them in different places. *1 amine or outer side, *2 acyl side, *3 side chain or, on linkers, in order; H or OH if unused. Where a SMILES comes first, the peptide text is derived from it. Bridges are numbered along the chain shown (N, C = ends). [ ]: non-standard residue; d: D form. The star is where a group is joined. hTyr(3S-OH,4S-OH,3'-OSO3H) = N[C@H](C(=O)O)[C@H](O)[C@@H](O)c1ccc(O)c(OS(=O)(=O)O)c1; Orn(4R-OH,5R-OH) = O=C([C@H](C[C@@H](O)[C@@H](O)N[*:3])N[*:1])[*:2]; Pro(3S-OH,4S-Me) = C[C@H]1CN[C@H](C(=O)O)[C@H]1O; X1 = CCCCCOc1ccc(-c2cc(-c3ccc(C(=O)*)cc3)no2)cc1; Gln(3R-OH) = NC(=O)C[C@@H](O)[C@H](N)C(=O)O; Hyp = O=C(O)[C@@H]1C[C@@H](O)CN1

What is called MIC is the lowest concentration that inhibits growth of the organism. On to `OC(Cn1cncn1)(Cn1cncn1)c1ccc(F)cc1F` [Fluconazole, fluconazole], for which the “Number of resistant C. auris isolates” value with C. auris isolates (of 38 isolates) is recorded as 38. The Solubility entry in data set [1] was “S”. Further, the “Reduction in colony counts compared to vehicle” value in the data set with C. albicans (R357) (20 mg/kg PO, 48 hr after infection) came out at 51%; with C. albicans (R357) (20 mg/kg PO, 72 hr after infection), 84%. For the same compound, the “Statistical significance of reduction versus vehicle” value in the data set with C. albicans (R357) (20 mg/kg PO, one-way ANOVA, Dunnett's test (P>0.05)) is listed as “not significant”. For the same compound, the “Susceptibility (CLSI)” value in data set [2] (C. albicans R357) was “R”. Moreover, the “Susceptibility of strain R357 in words” value in data set [2] is given as “resistant”. The compound also had an MIC in data set [2] (Candida albicans) above 64 µg/mL.
For the compound `CC[C@H](C)C[C@H](C)CCCCCCCCC(=O)N[C@H]1C[C@@H](O)[C@@H](NCCN)NC(=O)[C@@H]2[C@@H](O)CCN2C(=O)[C@H]([C@H](O)CCN)NC(=O)[C@H]([C@H](O)[C@@H](O)c2ccc(O)cc2)NC(=O)[C@@H]2C[C@@H](O)CN2C(=O)[C@H]([C@@H](C)O)NC1=O` [Caspofungin, caspofungin], the “Breakthrough at 48 h” value with C. auris isolates (C. auris strains) is recorded as “most strains breakthrough”. The “Number of resistant C. auris isolates” value with C. auris isolates (of 38 isolates) is 4. The “Susceptibility (CLSI)” value in data set [2] (C. albicans R357) was “S”. The minimum inhibitory concentration (MIC) in data set [2] (Candida albicans, C. albicans R357, endpoint 50% inhibition, read-out: MIC) was 0.25 µg/mL (≈ 0.229 µM).
As to `CC[C@@H]([C@H](C)O)n1ncn(-c2ccc(N3CCN(c4ccc(OC[C@@H]5CO[C@@](Cn6cncn6)(c6ccc(F)cc6F)C5)cc4)CC3)cc2)c1=O` [Posaconazole, posaconazole], the “Susceptibility of strain R357 in words” value in data set [2] is listed as “resistant”. The MIC in data set [2] (Candida albicans) was above 64 µg/mL.
In the case of `CCCCCOc1ccc(-c2cc(-c3ccc(C(=O)N[C@H]4C[C@@H](O)[C@@H](O)NC(=O)[C@@H]5[C@@H](O)[C@@H](C)CN5C(=O)[C@H]([C@H](O)CC(N)=O)NC(=O)[C@H]([C@H](O)[C@@H](O)c5ccc(O)c(OS(=O)(=O)O)c5)NC(=O)[C@@H]5C[C@@H](O)CN5C(=O)[C@H]([C@@H](C)O)NC4=O)cc3)no2)cc1` [MICA, micafungin] (X1-[Orn(4R-OH,5R-OH)]T[Hyp][hTyr(3S-OH,4S-OH,3'-OSO3H)][Gln(3R-OH)][Pro(3S-OH,4S-Me)]; lactam 1-C), in the data set on C. auris isolates, the “Number of resistant C. auris isolates” value is 4.
As to `C[C@@H](c1ncncc1F)[C@](O)(Cn1cncn1)c1ccc(F)cc1F` [Voriconazole, voriconazole], the “Susceptibility (CLSI)” value in data set [2] (C. albicans R357) was “R”. For the same compound, in data set [2], the “Susceptibility of strain R357 in words” value is “resistant”. This compound also showed an MIC in data set [2] (Candida albicans) above 64 µg/mL.
Take `C[C@@H]1[C@H](O)[C@@H](C)/C=C/C=C/C=C/C=C/C=C/C=C/C=C/[C@H](O[C@@H]2O[C@H](C)[C@@H](O)[C@H](N)[C@@H]2O)C[C@@H]2O[C@](O)(C[C@@H](O)C[C@@H](O)[C@H](O)CC[C@@H](O)C[C@@H](O)CC(=O)O[C@H]1C)C[C@H](O)[C@H]2C(=O)O` [Amphotericin B, amphotericin B]: the Survival versus vehicle entry in data set [3] is “significantly longer survival than vehicle”. The “Reduction in fungal counts” value in the data set on C. albicans (R357) (3 mg/kg IV, 72 hr) is given as “two log reduction”. Besides, the “Antimicrobial effect versus vehicle (kidney fungal counts)” value in the data set with C. albicans (R357) (1 and 3 mg/kg IV once, 48 and 72 hr after infection) is on record as “Significant effects”. Besides, the “Susceptibility (CLSI)” value in data set [2] (C. albicans R357) was “S”. In data set [2] (C. albicans R357, endpoint 100% inhibition), this compound gave an MIC of 0.5 µg/mL (≈ 0.541 µM). Also, in data set [2], the “Susceptibility of strain R357 in words” value was “susceptible”.
